# Test results reported in US20120058236A1, “SWEETENER COMPOSITION COMPRISING HIGH SOLUBILITY FORM OF REBAUDIOSIDE A AND METHOD OF MAKING” (Cargill Incorporated, priority 2009, published 2012).
# How the values were obtained:
# [1] = type: physicochemical
# Description: 10 mg of sample was mixed with 0.5 mL deionized water and stirred by a magnetic stirrer at room temperature. As the solid was completely dissolved, more solid was added to the system with the increments of 10-40 mg until the solution became cloudy, which corresponded to the final concentration of 0.41 g/mL. The cloudy solution was filtered through a Millex-GV 0.22 um filter into a pre-weighted aluminum pan and the known mass of clear filtered solution was placed into an oven at 85° C. The solvent was completely evaporated and the residual solid was weighted to determine solubility.
# 16 mg of sample was mixed with 1 mL deionized water and was stirred by a magnetic stirrer at room temperature. As the solid was completely dissolved, more solid was added to the system with the increments of 10-40 mg until the solution became cloudy, which corresponded to the final concentration of 0.4 g/mL. The cloudy solution was filtered through a Millex-GV 0.22 um filter into a pre-weighted aluminum pan and the known mass of clear filtered solution was placed into an oven at 85° C. The solvent was completely evaporated and the residual solid was weighted to determine solubility.
# [2] = Stability of aqueous solution of rebaudioside A crystal form; type: physicochemical; conditions: solution from Form 1 crystals containing more than about 1 g/100 g water
# Excerpt: In some sweetening applications it is desirable to provide a sweetener composition of rebaudioside A that has a higher solubility in water than Form 2. […] Increased solubility in water allows more of the sweetener to be dissolved in a food product in order to provide the desired sweetness level. Increased solubility may be desirable in food products such as syrups and concentrates.
Compound,Solubility at 22° C. (grams/100 grams water) [1] [grams/100 grams water],"Solubility in water at 24° C. (typical, stated in text) [1]",Stability in solution (conversion of dissolved form) [2],Concentration left in solution after conversion to Form 2 ([2]; after hours to days)
"C=C1C[C@@]23CC[C@H]4[C@@](C)(CCC[C@@]4(C)C(=O)O[C@@H]4O[C@H](CO)[C@@H](O)[C@H](O)[C@H]4O)[C@@H]2CC[C@]1(O[C@@H]1O[C@H](CO)[C@@H](O)[C@H](O[C@@H]2O[C@H](CO)[C@@H](O)[C@H](O)[C@H]2O)[C@H]1O[C@@H]1O[C@H](CO)[C@@H](O)[C@H](O)[C@H]1O)C3 [Form 2, rebaudioside A]",0.154,≤ 1 grams rebaudioside A/100 grams,,
"C=C1C[C@@]23CC[C@H]4[C@@](C)(CCC[C@@]4(C)C(=O)O[C@@H]4O[C@H](CO)[C@@H](O)[C@H](O)[C@H]4O)[C@@H]2CC[C@]1(O[C@@H]1O[C@H](CO)[C@@H](O)[C@H](O[C@@H]2O[C@H](CO)[C@@H](O)[C@H](O)[C@H]2O)[C@H]1O[C@@H]1O[C@H](CO)[C@@H](O)[C@H](O)[C@H]1O)C3 [Form 1, rebaudioside A]",,,tends to convert to Form 2 within hours to days,about 1 g/100 g water
